The results in this text go back to patent US8067413B2, “9-substituted-8-oxo-adenine compounds as toll-like receptor (TLR7 ) modulators” (AstraZeneca AB, priority 2007, dated 2011).

The structures appear in SMILES notation.

The target in this assay is T1, Recombinant human TLR7 (Homo sapiens, UniProt Q9NYK1).
T1 construct: expressed in transfected cells; host or cells: HEK293 cell line stably expressing the pNiFty2-SEAP reporter plasmid; TLR7 in pUNO vector
T1 sequence (Q9NYK1 27-1049): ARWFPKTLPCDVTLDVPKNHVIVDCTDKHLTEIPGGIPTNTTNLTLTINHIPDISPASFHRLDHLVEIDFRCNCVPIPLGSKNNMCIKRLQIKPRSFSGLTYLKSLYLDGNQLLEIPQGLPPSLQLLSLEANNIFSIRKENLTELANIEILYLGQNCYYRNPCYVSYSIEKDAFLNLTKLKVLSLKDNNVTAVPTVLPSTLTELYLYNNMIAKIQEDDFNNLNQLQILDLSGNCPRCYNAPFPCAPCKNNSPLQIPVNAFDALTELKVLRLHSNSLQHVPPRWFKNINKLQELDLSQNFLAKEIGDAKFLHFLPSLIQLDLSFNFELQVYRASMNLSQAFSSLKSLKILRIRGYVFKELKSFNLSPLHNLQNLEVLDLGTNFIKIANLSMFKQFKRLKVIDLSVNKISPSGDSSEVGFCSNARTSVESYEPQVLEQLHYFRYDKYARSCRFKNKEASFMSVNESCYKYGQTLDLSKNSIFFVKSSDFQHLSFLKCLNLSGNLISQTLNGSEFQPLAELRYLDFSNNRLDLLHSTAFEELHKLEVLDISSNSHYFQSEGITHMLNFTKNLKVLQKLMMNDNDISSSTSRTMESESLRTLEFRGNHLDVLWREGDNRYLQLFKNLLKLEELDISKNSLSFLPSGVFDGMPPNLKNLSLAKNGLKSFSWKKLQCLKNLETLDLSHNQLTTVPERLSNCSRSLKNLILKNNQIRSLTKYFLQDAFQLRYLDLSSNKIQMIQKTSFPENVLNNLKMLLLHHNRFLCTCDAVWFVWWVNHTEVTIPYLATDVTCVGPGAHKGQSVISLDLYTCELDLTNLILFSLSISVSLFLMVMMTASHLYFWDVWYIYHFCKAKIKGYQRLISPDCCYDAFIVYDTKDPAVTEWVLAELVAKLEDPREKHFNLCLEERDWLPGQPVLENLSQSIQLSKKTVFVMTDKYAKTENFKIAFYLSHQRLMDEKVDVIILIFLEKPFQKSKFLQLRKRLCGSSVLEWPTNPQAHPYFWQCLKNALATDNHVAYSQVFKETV
As to the kind of experiment: Human TLR7 Assay (SEAP reporter in HEK293 cells). To be noted: HEK293 cell line stably expressing human TLR7 and pNiFty2-SEAP reporter; SEAP induction after overnight incubation at 37° C., 0.1% (v/v) DMSO. It counts as cell-based. The text has this: Recombinant human TLR7 was stably expressed in a HEK293 cell line already stably expressing the pNiFty2-SEAP reporter plasmid; integration of the reporter gene was maintained by selection with the antibiotic zeocin. The most common variant sequence of human TLR7 (represented by the EMBL sequence AF240467) was cloned into the mammalian cell expression vector pUNO and transfected into this reporter cell-line. Transfectants with stable expression were selected using the antibiotic blasticidin. In this reporter cell-line, expression of secreted alkaline phosphatase (SEAP) is controlled by an NFkB/ELAM-1 composite promoter comprising five NFkB sites combined with the proximal ELAM-1 promoter. TLR signaling leads to the translocation of NFkB and to activation of the promoter results in expression of the SEAP gene. TLR7-specific activation was assessed by determining the level of SEAP produced following overnight incubation of the cells at 37° C. with the standard compound in the presence of 0.1% (v/v) dimethylsulfoxide (DMSO). Concentration dependent induction of SEAP production by compounds was expressed as the concentration of compound which produced half of the maximal level of SEAP induction for that compound (pEC50)
The term EC50 denotes the midpoint of the concentration-response curve. Take `CCCCOc1nc(N)c2[nH]c(=O)n(CCCN(C)CC(=O)N(C)C)c2n1` [Example 4, N^2-[3-(6-Amino-2-butoxy-8-oxo-7,8-dihydro-9H-purin-9-yl)propyl]-N^1,N^1,N^2-trimethylglycinamide]: the EC50 was 251 nM.
The value for `CCCCOc1nc(N)c2[nH]c(=O)n(CCCN3CCC[C@H]3COC)c2n1` [Example 3, 6-Amino-2-butoxy-9-{3-[(25)-2-(methoxymethyl)pyrrolidin-1-yl]propyl}-7,9-dihydro-8H-purin-8-one] was 2510 nM.
The value for `CCCCOc1nc(N)c2[nH]c(=O)n(CCCN3CCC[C@H]3C(=O)N(C)C)c2n1` [Example 2, 1-[3-(6-Amino-2-butoxy-8-oxo-7,8-dihydro-9H-purin-9-yl)propyl]-N,N-dimethyl-L-prolinamide] was 3160 nM; that for `CCCCOc1nc(N)c2[nH]c(=O)n(CCCN3CCCC3)c2n1` [Example 1, 6-Amino-2-butoxy-9-(3-pyrrolidin-1-ylpropyl)-7,9-dihydro-8H-purin-8-one] was 398 nM.
